According to patent publication US20160000766A1, “HDAC INHIBITORS TO TREAT CHARCOT-MARIE-TOOTH DISEASE” (VIB VZW, priority 2010, published 2016):
Entries after “also recorded” stand apart in the source; their conditions may differ.

Columns and labels:
[1] = tested on: DRG neurons isolated from symptomatic HSPB1^S135F mice; assay: Axonal transport of mitochondria in cultured DRG neurons treated in vitro with HDAC inhibitors; type: cell-based, mouse; conditions: for effectiveness on total and moving mitochondria relative to TSA / number of moving mitochondria / total numbers of mitochondria: 12 hours treatment; for effectiveness on total and moving mitochondria relative to TSA: FIG. 8, Panels a and b; for number of moving mitochondria / total numbers of mitochondria: TSA 0.4 μM, tubacin 2 μM, tubastatin A 1 μM, vs DMSO
Description: (§1) Panels a and b: Axonal transport of mitochondria was assessed in DRG neurons isolated from symptomatic (eight-month-old) HSPB1^S135F mice after 12 hours incubation with various concentrations (0, 0.25, 0.50 or 1.00 μM) of Tubastatin A. Panel a: Quantification of the total number of mitochondria at various concentrations of Tubastatin A. One-way ANOVA. P>0.05. Panel b: Quantification of the number of moving mitochondria at different concentrations of Tubastatin A. One-way ANOVA. * P<0.05; ** P<0.001; P<0.0001. Panel c: Quantification of the integrated density of the acetylated tubulin signal along neurites at various concentrations of Tubastatin A. n=25 to 30 cells/condition. One-way ANOVA. * P<0.05.
(§2) FIG. 8: HDAC6 inhibition rescues axonal transport defects and restores the CMT2 phenotype. Panels a and b: Axonal transport of mitochondria measured in DRG neurons isolated from ten-month-old HSPB1^S135F-expressing mice after 12 hours of treatment with TSA (0.4 μM), tubacin (2 μM), tubastatin A (1 μM) or an equivalent amount of DMSO. Total number of (Panel a) and number of moving (Panel b) mitochondria (per 200 seconds and per 100 μm) were quantified. n=20 to 30 cells isolated from three different mice for each condition. *P<0.05; **P<0.01; ***P<0.0001. Panels c and d: Western blots of sciatic nerve and spinal cord extracts from symptomatic eight-month-old HSPB1^S135F-expressing mice treated daily for three weeks with TSA (10 mg per kg body weight; Panel c) or tubastatin A (25 mg per kg body weight; Panel d) probed against acetylated tubulin. Equal loading was confirmed with α-tubulin staining. n=3. Panels e and f: Quantifications of optical density (OD) of acetylated tubulin on Western blots of sciatic nerve (Panel e) and spinal cord (Panel f) extracts of symptomatic HSPB1^S135F-expressing mice treated with TSA or tubastatin A. n=3. Panel g: Motor performance on an accelerating rotarod of HSPB1^S135F-expressing mice treated for three weeks with TSA or tubastatin A. Panels h and i: Effect of the TSA or tubastatin A treatments of HSPB1^S135F-expressing mice on the amplitudes of CMAPs (Panel h) or SNAPs (Panel i). n=3 to 6 mice per group. […]; **P<0.001; ***P<0.0001. One-way ANOVA was used to analyze the data in Panels a, b, and e through i. Data are presented as means±s.e.m.
(§3) It has previously been shown that the intracellular distribution of specific cargoes, such as mutant HSPB1 itself, but also neurofilament and p150, was disturbed in cortical neurons transfected with HSPB1^P182L (ref. 12). In order to study effects of mutant HSPB1 on axonal transport, dorsal root ganglion (DRG) neurons from adult transgenic mice were isolated and analyzed mitochondrial transport in these neurons after two days in culture. Mitochondrial movement was visualized by loading DRG neurons with a selective mitochondrial marker (MITOTRAcKER®) and by live video imaging (FIG. 6, Panel a). Kymographs resulting from time compression of video images were used to quantify the total number of mitochondria present in the neurites and to discriminate antero- and retrogradely moving from stationary mitochondria (FIG. 6, Panel a, right-side panels).
Treatment of DRG neurons isolated from symptomatic HSPB1^[…]-expressing mice with TSA, tubacin or tubastatin A increased total numbers of mitochondria FIG. 8, Panel a) and restored the number of moving mitochondria (FIG. 8, Panel b).

[2] = tested on: acetylated α-tubulin; assay: Western blots of acetylated α-tubulin in sciatic nerve and spinal cord of treated mice; type: in vivo, mouse; conditions: daily for 21 days, TSA 10 mg per kg, tubastatin A 25 mg per kg; for acetylated α-tubulin amounts in peripheral nerves: sciatic nerve
Description: as §2
Next, symptomatic HSPB1^S135F-expressing mice were treated for 21 days with either a nonspecific or a specific HDAC6 inhibitor.

[3] = tested on: DRG neurons isolated from symptomatic HSPB1^S135F-expressing mice; assay: Ex vivo axonal transport of mitochondria in DRG neurons isolated from treated mice; parameters: species or system mouse; conditions: after three weeks of in vivo treatment
Description: (§4) FIG. 9: TSA or tubastatin A treatment leads to muscle reinnervation and rescues axonal transport defects. Panels a and b: Effect of vehicle (DMSO), TSA or tubastatin A treatment on the innervation level of the gastrocnemius muscle in symptomatic, eight-month-old HSPB1^S135F-expressing mice. The number of visible neuromuscular junctions (NMJs) per axon in each field of view (Panel a) and the relative quantity of denervated neuromuscular junctions (Panel b) were determined after staining gastrocnemius muscle with antibodies against α-bungarotoxin and neurofilament heavy chain. n=2 or 3 mice per condition. ***P<0.0001. Panels c and d: Axonal transport of mitochondria measured in cultured DRG neurons isolated from symptomatic HSPB1^S135F-expressing mice after three weeks of treatment with TSA or tubastatin A. Total number (Panel c) and number of moving mitochondria (Panel d) were quantified (per 200 seconds and 100 μm). n=20 to 25 cells isolated from three different mice in each condition. *P<0.05; ***P<0.0001. One-way ANOVA was used to analyze the data. Tukey's HSD test was used for post hoc analysis in Panels a through d. Data are presented as means±s.e.m.
as §3
Finally, we measured ex vivo axonal transport in DRG neurons isolated from treated mice.

[4] = tested on: symptomatic HSPB1^S135F-expressing mice; assay: Nerve conduction studies (CMAP and SNAP amplitudes) in treated mice; type: in vivo, mouse; conditions: treated for three weeks; TSA 10 mg per kg, tubastatin A 25 mg per kg
Description: as §2
Nerve conduction studies are routinely done on CMT patients to discriminate demyelinating (type 1) from axonal (type 2) forms, as well as to assess whether patients show either a mixed sensorimotor (CMT2) or a pure motor neuropathy (distal HMN). Therefore, nerve conduction studies were performed on transgenic HSPB1 mice using sub-dermal electrodes, either at the level of the gastrocnemius muscle to measure compound muscle action potentials (CMAPs), or in the distal end of the tail to record sensory nerve action potentials (SNAPs). […] The decrease in CMAP amplitudes in function of age was more pronounced in HSPB1^P182L compared to HSPB1^S135F mice as assessed by the slopes (slopeS135F=−4.66±0.32; slopeP182L=−6.23±0.93; P=0.004; FIG. 4, Panel c). CMAP latencies were unaffected, confirming the axonal nature of the motor neuropathy in both mutant HSPB1 lines (FIG. 4, Panel d).
It was also observed that the loss of acetylcholine-receptor clusters at the end plates in gastrocnemius muscle was restored (FIG. 9, Panel a) and that the level of denervation of the remaining neuromuscular junctions was decreased (FIG. 9, Panel b). […]

[5] = tested on: acetylated tubulin; assay: Acetylated tubulin signal along neurites of cultured DRG neurons; type: cell-based, mouse; conditions: 12 hours incubation; 0, 0.25, 0.50 or 1.00 μM
Description: as §1

[6] = tested on: symptomatic HSPB1^S135F-expressing mice; assay: Motor performance on accelerating rotarod of treated HSPB1^S135F-expressing mice; type: in vivo, mouse; conditions: for motor performance (accelerating rotarod): treated for three weeks, TSA 10 mg per kg, tubastatin A 25 mg per kg; for CMT2 phenotype at the behavioral and electrophysiological levels: treatment of mutant HSPB1 mice (Example 9)
Description: as §2
Next, general motor performance was assessed using an accelerating rotarod. All mice could stay on the rotarod (300 seconds) until the age of six months. From that age on, both mutant HSPB1 lines started to fail on the rotarod test and a progressive reduction in performance was observed over time (P<0.0001; FIG. 1, Panel c).
(§5) It was also observed that the loss of acetylcholine-receptor clusters at the end plates in gastrocnemius muscle was restored (FIG. 9, Panel a) and that the level of denervation of the remaining neuromuscular junctions was decreased (FIG. 9, Panel b). These observations indicate that increasing acetylated α-tubulin abundance in peripheral nerves leads to re-innervation of muscles.

[7] = tested on: symptomatic HSPB1^S135F-expressing mice; assay: Innervation level of the gastrocnemius muscle (neuromuscular junctions) in treated mice; type: in vivo, mouse; conditions: treated for three weeks; eight-month-old mice
Description: as §4, §5

Structure (SMILES)	effectiveness on total and moving mitochondria relative to TSA [1]	number of moving mitochondria [1]	total numbers of mitochondria [1]	overall α-tubulin abundance [2]	acetylated α-tubulin amounts in peripheral nerves [2]	mitochondrial motility, overall rescue and comparison with TSA (ex vivo) [3]	number of moving mitochondria (ex vivo) [3]	total number of mitochondria (ex vivo) [3]	CMAP amplitudes [4]	SNAP amplitudes [4]	acetyl-tubulin levels in vitro (integrated density along neurites) [5]	axonal transport of mitochondria, dose dependence ([1]; 12 hours incubation, 0, 0.25, 0.50 or 1.00 μM, eight-month-old HSPB1^S135F mice)	motor performance (accelerating rotarod) [6]	CMT2 phenotype at the behavioral and electrophysiological levels [6]	level of denervation of the remaining neuromuscular junctions [7]	loss of acetylcholine-receptor clusters at the end plates in gastrocnemius muscle [7]	acetylated α-tubulin amounts in spinal cord [2]
O=C(CCCCCCC(=O)Nc1ccc([C@H]2O[C@@H](CSc3nc(-c4ccccc4)c(-c4ccccc4)o3)C[C@@H](c3ccc(CO)cc3)O2)cc1)NO [tubacin]	more effective compared to TSA	restored	increased	–	–	–	–	–	–	–	–	–	–	–	–	–	–
CN1CCc2c(c3ccccc3n2Cc2ccc(C(=O)NO)cc2)C1 [tubastatin A]	more effective compared to TSA	restored	increased	did not affect	significant increase	more effective than TSA; also recorded: complete rescue	increased significantly	increased	increased	increased	increased	dose-dependently rescued	significantly increased	partially restored	decreased	restored	–
CC(/C=C/C(=O)NO)=C\[C@@H](C)C(=O)c1ccc(N(C)C)cc1 [TSA, Trichostatin A]	–	restored	increased	did not affect	significant increase	–	increased significantly	–	increased	increased	–	–	significantly increased	partially restored	decreased	restored	also increased
